# Measured values: patent publication US4622321A, “Oxadiazolylimidazobenzodiazepine, compositions, and method” (AS Ferrosan, priority 1985, dated 1986)
# Columns and labels:
# [1] = test system: pentylenetetrazol-induced clonic convulsions in mice; assay: Pentazol clonic convulsions in mice, i.p. (Procedure 400); type: in vivo; conditions: for ED50: Mus musculus, ip, i.p. 30 min before 150 mg/kg pentylenetetrazol s.c., seizures inhibited in 50% of the animals, read-out: ED50, activity against pentazol induced convulsions, clonic
# Description: II. Pentazol clonic conv. mice (i.p.) (Procedure 400)
# (§1) Pentylenetetrazol induces clonic and tonic convulsions in mice at doses of 60-120 mg/kg s.c. The mechanism is unknown but seems to be due to some effects through the GABA receptor/benzodiazepine receptor/chloride ionophore complex. Antagonism of convulsions induced by maximal doses of pentylenetetrazol is considered predictive for drugs effective against petit mal epilepsia and anxiety.
# 150 mg/kg pentylenetetrazol dissolved in 0.9% NaCl is given by the subcutaneous route in volumes of 15 ml/kg to male or female NMRI mice weighing 20-25 g 30 min after an intraperitoneal injection of a test compound.
# The ED50 value is calculated as the dose in μg/kg at which seizures are inhibited in 50% of the animals using a computer program based on the method of Litchfield and Wilcoxon (1949).
# [2] = test system: benzodiazepine receptors; assay: In vivo inhibition of 3H-flunitrazepam binding to mouse forebrain membranes (Procedure 130); parameters: species or system mice; conditions: for ED50 binding in vivo: i.p. 15 min before 3H-FNM i.v., dose which inhibits 50% of specific 3H-FNM binding, mouse forebrain
# Description: I. In vivo inhibition of ^3 H-flunitrazepam binding to mouse forebrain membranes by test substances administered intraperitoneally. (Procedure 130)
# Twenty minutes after a dose of ^3 H-flunitrazepam (^3 H-FNM) (200 μCi/kg, i.v.) the amount of specific ^3 H-FNM binding to brain benzodiazepine receptors has reached its maximal value.
# Suspensions of test substances (2 mg/ml) are prepared in 5% Duphasol-X* by sonification for 10 min using a Branson B15 microtip ultrasonifier (setting 7). Groups of three mice (female, NMR, 18-22 gram) are injected with the test substance at 100 mg/kg intraperitoneally. Fifteen minutes after test substance administration the mice are challenged with 4 μCi intraveneously of ^3 H-FNM (70-90 Ci/mole) in 200 μl physiological saline. Twenty minutes after ^3 H-FNM administration mice are sacrificed by decapitation, the forebrains rapidly excised (within 30 sec) and homogenized in 12 ml of icecold 25 mM KH2 PO4, pH 7.1, using an Ultra-Turrax homogenizer fitted with an N 10 shaft. Two aliquots of 1 ml are immediately filtered through Whatman GF/C glassfibre filters and washed with 2×5 ml of the above mentioned buffer. The amounts of radioactivity on the filters are determined by conventional scintillation counting. One group of untreated mice serves as controls. One to three mice are injected with 25 mg/kg clonazepam i.p. 30 minutes before ^3 H-FNM to determine the amount of non-specific ^3 H-FNM binding, which should be between 8-15% of total binding.
# *(™Duphar; castor-oil-ethylene oxide derivative for emulsifying and solubilizing oil and other water-insoluble substances)
# When doses of 100 mg/kg inhibit more than 50% of specific ^3 H-flunitrazepam binding; test substances are administered in doses, which are factors of 3.16 times lower than 100 mg/kg.
# The ED50 for a test substance is defined as that dose which inhibits 50% of specific ^3 H-FNM binding. Specific binding is the amount of binding in controls minus the amount binding in clonazepam-treated mice.
# The ED50 value is determined from dose response curves. If only one dose of test substance is administered the ED50 value is calculated as follows, provided that the inhibition of specific binding is within the range of 25-75%: [formula] where Co is specific binding in controls and Cx is specific binding in mice treated with test substance.
# [3] = test system: pentylenetetrazol-induced tonic convulsions in mice; assay: Pentazol tonic convulsions in mice, i.p. (Procedure 401); type: in vivo; conditions: for ED50: Mus musculus, ip, i.p. 30 min before 150 mg/kg pentylenetetrazol s.c., seizures inhibited in 50% of the animals, read-out: ED50, activity against pentazol induced convulsions, tonic
# Description: III. Pentazol tonic conv. mice i.p. (Procedure 401)
# as §1, with “seem” for “seems”
# 150 mg/kg pentylenetetrazol (Pentazol, Sigma) dissolved in 0.9% NaCl is given by the subcutaneous route in volumes of 15 ml/kg to male or female NMRI mice weighing 20-25 g 30 min after an intraperitoneal injection of a test compound.
# The ED50 value is calculated as the dose in μg/kg where seizures are inhibited in 50% of the animals using a computer program based on the method of Litchfield and Wilcoxon (1949).
# [4] = compared to analogue (D), Roche EP 150,040 ex. 44
Compound,ED50 [1],"times as active in protecting against pentetrazol induced clonic convulsions [1, 4]",times as active in protecting against pentetrazol induced clonic convulsions ([1]; compared to compound E),"times as active in binding affinity for the benzodiazepine receptor [2, 4]",times more as active in binding affinity for the benzodiazepine receptor ([2]; compared to compound E),ED50 binding in vivo [2],ED50 [3],"times as active in protecting against pentetrazol induced tonic convulsions [3, 4]",times as active in protecting against pentetrazol induced tonic convulsions ([3]; compared to compound E)
"CN1Cc2c(-c3noc(C4CC4)n3)ncn2-c2ccccc2C1=O [A, 3-(5-cyclopropyl-1,2,4-oxadiazol-3-yl)-5,6-dihydro-5-methyl-6-oxo-4H-imidazo[1,5-a][1,4]benzodiazepine]",0.07 mg/kg,approximately 40 times,185 times,more than 4 times,12 times,80 µg/kg,0.03 mg/kg,10 times,33 times
CCc1nc(-c2ncn3c2CN(C)C(=O)c2ccccc2-3)no1 [B],27 mg/kg,–,–,–,–,"1,800 μg/kg",1.3 mg/kg,–,–
CC(C)c1noc(-c2ncn3c2CN(C)C(=O)c2ccccc2-3)n1 [C],3 mg/kg,–,–,–,–,600 µg/kg,1.7 mg/kg,–,–
CN1Cc2c(-c3nc(C4CC4)no3)ncn2-c2ccccc2C1=O [D],2.7 mg/kg,–,–,–,–,340 µg/kg,0.3 mg/kg,–,–
O=C1c2c(Cl)cccc2-n2cnc(-c3noc(C4CC4)n3)c2C2CCCN12 (stereo not drawn) [E],13 mg/kg,–,–,–,–,960 µg/kg,1 mg/kg,–,–
